Data reported in US20240181081A1, “Compositions and Methods for Treatment of Myotonic Dystrophy Type 1 with CRISPR/SACAS9” (Vertex Pharmaceuticals Incorporated, priority 2021, published 2024).

Columns and labels:
[1] = tested on: CUG RNA foci in primary DM1 patient myoblasts; test: DOUBLE-cut screening: FISH staining of RNA foci in primary DM1 patient myoblasts; type: cell-based, human; details: sgRNA pair RNP, 72 hrs post nucleofection; for % of CUG foci free nuclei (DNA-PKi): 3 μM Compound 6 for 48 hrs; for % of CUG foci free nuclei (Vehicle): DMSO 48 hrs
Procedure: (§1) RNPs were assembled with recombinant SaCas9 protein (Aldevron) and chemically modified sgRNAs (Synthego) at a ratio of 1:3 (protein:sgRNA). For SINGLE-cut screening, RNP complexes were assembled with 30 pmol of SaCas9 and 90 pmol of sgRNA in P5 Primary Cell Nucleofector Solution (Lonza). After incubation at room temperature for 20 minutes, 10 μL of RNP complex was mixed with two hundred thousand primary myoblasts resuspended in 10 μL of P5 Nucleofector Solution. For DOUBLE-cut screening, RNP complexes were first assembled for individual sgRNAs with 20 pmol of SaCas9 protein and 60 pmol of sgRNAs in 5 μL of P5 Nucleofector Solution. After incubation at room temperature for 20 minutes, the two RNP complexes (one for upstream sgRNA and one for downstream sgRNA) were mixed at 1:1 ratio and then further mixed with two hundred thousand primary myoblasts resuspended in 10 μL of P5 Nucleofector Solution.
(§2) The Nucleofector 96-well Shuttle System (Lonza) was used to deliver the SaCa9/sgRNA RNPs into primary DM1 patient myoblasts using the nucleofection program CM138. Following nucleofection, myoblasts from each well of nucleofection shuttle were split into six wells of the 96-well cell culture plate (Greiner, 655090) coated with matrigel. The first three wells were treated with DMSO for 48 hrs before changing to fresh myoblast growth medium, and the other three wells were treated with 3 μM of DNA-PKi Compound 6 for 48 hrs before changing to fresh myoblast growth medium. 72 hrs post nucleofection, two wells of DMSO-treated myoblasts and two wells of DNA-PKi-treated myoblasts from each nucleofection were harvested for genomic DNA extraction using the Kingfisher Flex purification system (Thermal Fisher), whereas one well of DMSO-treated myoblasts and one well of DNA-PKi-treated myoblasts were stained for RNA foci by FISH staining.
Primary myoblasts were fixed for 15 min with 4% paraformaldehyde (PFA) and washed five times with 1×PBS for 10 min each at room temperature. Before staining, cells were permeabilized with 0.5% triton X-100 in 1×PBS for 5 min at room temperature, and then washed with 30% formamide and 2× saline-sodium citrate (SSC) mixture for 10 min at room temperature. Cells were then stained with 1 ng/μL of Cy3-PNA(CAG) 5 probe (PNA Bio, F5001) diluted in 30% formamide, 2×SSC, 2 μg/mL BSA, 66 μg/mL yeast tRNA, and 2 mM vanadyl complex for 15 min at 80° C. Following probe staining, cells were then washed in 30% formamide and 2×SSC mixture for 30 min at 42° C., then washed in 30% formamide and 2×SSC mixture for 30 min at 37° C., and then washed in 1×SSC solution for 10 min at room temperature, and finally washed in 1×PBS for 10 min at room temperature. Cells were next stained with anti-MBNL1 antibody (Santa Cruz, 3A4) diluted in 1% bovine serum albumin (BSA) for overnight at 4° C., and washed twice with 1×PBS for 10 min each at room temperature. Cells were then incubated with the secondary antibody goat […] Alexa 647 (Thermo Fisher, A32728) diluted in 1% BSA for 1 hr at room temperature, and washed twice with 1×PBS for 10 min each at room temperature. Next, cells were stained with Hoechst solution (Thermo Fisher, H3569) at 0.1 mg/ml for 5 min, and washed once with 1×PBS for 5 min. PBS was aspirated and fresh 100 μl of fresh PBS was added to each well. High-throughput acquisition of images was completed with the ImageXpress Micro Confocal High-Content Imaging System (Molecular Devices). RNA foci quantifications were accomplished with a customized analysis module of the MetaXpress program (Molecular Devices).
Next, DOUBLE-cut screening was performed to assess the efficiency of paired sgRNAs-induced CTG repeat excision and RNA foci reduction. 90 SaCas9 sgRNA pairs formed by one upstream sgRNA and one downstream sgRNA were assembled with recombinant SaCas9 protein into RNP complex and nucleofected into primary DM1 patient myoblasts. […]

[2] = tested on: CTG repeat expansion in the 3′ UTR of human DMPK gene; test: DOUBLE-cut screening: CTG repeat excision by loss-of-signal ddPCR in primary DM1 patient myoblasts; type: cell-based; details: sgRNA pair RNP, mean of upstream and downstream ddPCR assays; for % of CTG repeat excision efficiency by ddPCR (DNA-PKi): 3 μM Compound 6 for 48 hrs; for % of CTG repeat excision efficiency by ddPCR (Vehicle): DMSO 48 hrs
Procedure: as §1, §2
The primers and probes of ddPCR were designed using the online primer design software Primer3Plus (http://www.bioinformatics.nl/cgi-bin/primer3plus/primer3plus.cgi). The two Target primers/probe sets were used to detect CTG repeat excision, and the Reference primers/probe set was used to amplify a region located in Exon 1 of human DMPK gene and it served as a reference control for the Target sets. The 24 μL of ddPCR reaction consisted of 12 μL of Supermix for Probes (no dUTP) (Bio-Rad Laboratories), 1 μL of Reference primers mix (21.6 μM), 1 μL of Reference probe (6 μM), 1 μL of Target primers mix (21.6 μM), 1 μL of Target probe (6 μM), and 8 μL of sample genomic DNA. Droplets were generated using probe oil with the QX200 Droplet Generator (Bio-Rad Laboratories). Droplets were transferred to a 96-well PCR plate, sealed and cycled in a C1000 deep well Thermocycler (Bio-Rad Laboratories) under the following cycling protocol: 1 cycle at 95° C. for 10 min; 40 cycles of 94° C. for 30 sec, and 58° C. for 1 min; 1 cycle at 98° C. for 10 min (for enzyme inactivation). The cycled plate was then transferred and read in the FAM and HEX channels using the Bio-Rad QX200 Droplet Reader (Bio-Rad Laboratories). ddPCR analysis was performed with the Bio-Rad QuantaSoft Pro Software.
Next, DOUBLE-cut screening was performed to assess the efficiency of paired sgRNAs-induced CTG repeat excision and RNA foci reduction. 90 SaCas9 sgRNA pairs formed by one upstream sgRNA and one downstream sgRNA were assembled with recombinant SaCas9 protein into RNP complex and nucleofected into primary DM1 patient myoblasts. Nucleofected myoblasts were treated with either DMSO (vehicle) or 3 μM of Compound 6 (DNA-PKi) for 48 hrs. 72 hrs post nucleofection, myoblasts were subjected to either genomic DNA isolation or RNA foci staining.
One upstream and one downstream loss-of-signal droplet digital PCR (ddPCR) assays were used to determine the efficiency of CTG repeat excision. ddPCR signals would be abolished upon excision of the CTG repeat expansion in these loss-of-signal ddPCR assays. […]

Row | Substance | % of CUG foci free nuclei (DNA-PKi) [1] [%] | % of CUG foci free nuclei (Vehicle) [1] [%] | % of CTG repeat excision efficiency by ddPCR (DNA-PKi) [2] [%] | % of CTG repeat excision efficiency by ddPCR (Vehicle) [2] [%]
1 | SaU1 + SaD15: SaCas9 sgRNA pair, SEQ ID NOs: 1 and 23 (guide 1 GCCCCGGAGTCGAAGACAGTTC; guide 2 GACAATAAATACCGAGGAATGT; listed as DNA, chemistry not fully specified) | 85.70 | 72.80 | 64.96 | 37.54
2 | SaU1 + SaD17: SaCas9 sgRNA pair, SEQ ID NOs: 1 and 25 (guide 1 GCCCCGGAGTCGAAGACAGTTC; guide 2 TTTATTCGCGAGGGTCGGGGGT; listed as DNA, chemistry not fully specified) | 75.32 | 45.51 | 53.66 | 26.29
3 | SaU1 + SaD18: SaCas9 sgRNA pair, SEQ ID NOs: 1 and 26 (guide 1 GCCCCGGAGTCGAAGACAGTTC; guide 2 GGGCCTTTTATTCGCGAGGGTC; listed as DNA, chemistry not fully specified) | 69.94 | 29.85 | 47.64 | 19.40
4 | SaU1 + SaD19: SaCas9 sgRNA pair, SEQ ID NOs: 1 and 27 (guide 1 GCCCCGGAGTCGAAGACAGTTC; guide 2 AGGACCCCCACCCCCGACCCTC; listed as DNA, chemistry not fully specified) | 76.49 | 49.44 | 52.62 | 32.74
5 | SaU1 + SaD20: SaCas9 sgRNA pair, SEQ ID NOs: 1 and 28 (guide 1 GCCCCGGAGTCGAAGACAGTTC; guide 2 AGATGGAGGGCCTTTTATTCGC; listed as DNA, chemistry not fully specified) | 83.73 | 69.61 | 61.37 | 39.94
6 | SaU2 + SaD2: SaCas9 sgRNA pair, SEQ ID NOs: 2 and 10 (guide 1 ACTCAGTCTTCCAACGGGGCCC; guide 2 TCGGCCAGGCTGAGGCCCTGAC; listed as DNA, chemistry not fully specified) | 83.29 | 81.76 | 56.39 | 52.26
7 | SaU2 + SaD3: SaCas9 sgRNA pair, SEQ ID NOs: 2 and 11 (guide 1 ACTCAGTCTTCCAACGGGGCCC; guide 2 CAACGATAGGTGGGGGTGCGTG; listed as DNA, chemistry not fully specified) | 80.14 | 55.11 | 56.04 | 36.75
8 | SaU2 + SaD5: SaCas9 sgRNA pair, SEQ ID NOs: 2 and 13 (guide 1 ACTCAGTCTTCCAACGGGGCCC; guide 2 GGGTTTGGCAAAAGCAAATTTC; listed as DNA, chemistry not fully specified) | 83.71 | 75.82 | 59.19 | 38.64
9 | SaU2 + SaD6: SaCas9 sgRNA pair, SEQ ID NOs: 2 and 14 (guide 1 ACTCAGTCTTCCAACGGGGCCC; guide 2 CTTTTGCCAAACCCGCTTTTTC; listed as DNA, chemistry not fully specified) | 65.23 | 31.53 | 45.77 | 24.88
10 | SaU2 + SaD7: SaCas9 sgRNA pair, SEQ ID NOs: 2 and 15 (guide 1 ACTCAGTCTTCCAACGGGGCCC; guide 2 GGGGCGCGGGATCCCCGAAAAA; listed as DNA, chemistry not fully specified) | 76.74 | 49.05 | 52.12 | 29.62
11 | SaU2 + SaD10: SaCas9 sgRNA pair, SEQ ID NOs: 2 and 18 (guide 1 ACTCAGTCTTCCAACGGGGCCC; guide 2 TTGGGGGTCCTGTAGCCTGTCA; listed as DNA, chemistry not fully specified) | 82.97 | 75.56 | 66.52 | 38.02
12 | SaU2 + SaD11: SaCas9 sgRNA pair, SEQ ID NOs: 2 and 19 (guide 1 ACTCAGTCTTCCAACGGGGCCC; guide 2 CAAAACGTGGATTGGGGTTGTT; listed as DNA, chemistry not fully specified) | 73.23 | 48.38 | 52.97 | 26.90
